Reference: US6248738A, “Isoquinolines as urokinase inhibitors” (Pfizer Inc., priority 1997, dated 2001)
pKi: −log10 of the molar value.

Legend:
tumour metastasis = details: literature; cited from earlier work
[1] = test system: angiogenesis/capillary network formation; details: literature; cited from earlier work
human urokinase = target: T1, human urokinase (Homo sapiens, UniProt P00749); assay: Inhibition of human urokinase (HMWT human urokinase, substrate S-2444); format: biochemical; details: S-2444 substrate, read-out: Ki uPA
T1 construct: the urokinase used was HMWT Human Urokinase (Calbiochem 672081); purchased Calbiochem 672081

human tPA = human tPA (Homo sapiens, UniProt P00750); assay: Inhibition of human tPA (substrate S-2288, tPA stimulator); format: biochemical; details: selectivity for uPA over human tPA
human plasmin = human plasmin (Homo sapiens, UniProt P00747); assay: Inhibition of human plasmin (substrate Chromozym-PL); format: biochemical; details: selectivity for uPA over human plasmin
Chain of human plasmin (P00747 97-810): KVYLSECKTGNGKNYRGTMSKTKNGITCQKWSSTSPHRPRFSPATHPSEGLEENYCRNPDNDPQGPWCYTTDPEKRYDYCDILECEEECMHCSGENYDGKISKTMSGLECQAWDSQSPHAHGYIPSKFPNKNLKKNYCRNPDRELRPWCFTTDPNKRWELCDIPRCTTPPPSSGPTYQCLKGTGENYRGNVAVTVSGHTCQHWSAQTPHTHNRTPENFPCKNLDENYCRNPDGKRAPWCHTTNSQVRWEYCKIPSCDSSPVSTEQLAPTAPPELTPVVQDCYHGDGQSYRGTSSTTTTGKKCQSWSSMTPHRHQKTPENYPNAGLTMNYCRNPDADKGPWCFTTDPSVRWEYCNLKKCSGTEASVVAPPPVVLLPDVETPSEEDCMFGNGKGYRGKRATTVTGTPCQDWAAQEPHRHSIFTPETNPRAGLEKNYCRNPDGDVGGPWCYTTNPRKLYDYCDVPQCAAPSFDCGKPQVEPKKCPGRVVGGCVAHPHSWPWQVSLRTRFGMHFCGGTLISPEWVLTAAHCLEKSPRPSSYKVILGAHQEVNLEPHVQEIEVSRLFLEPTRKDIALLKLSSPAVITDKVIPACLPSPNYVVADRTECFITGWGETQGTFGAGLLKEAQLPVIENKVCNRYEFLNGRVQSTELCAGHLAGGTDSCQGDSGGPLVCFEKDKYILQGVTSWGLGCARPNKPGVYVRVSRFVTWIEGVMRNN

Chain of human tPA (P00750 33-562): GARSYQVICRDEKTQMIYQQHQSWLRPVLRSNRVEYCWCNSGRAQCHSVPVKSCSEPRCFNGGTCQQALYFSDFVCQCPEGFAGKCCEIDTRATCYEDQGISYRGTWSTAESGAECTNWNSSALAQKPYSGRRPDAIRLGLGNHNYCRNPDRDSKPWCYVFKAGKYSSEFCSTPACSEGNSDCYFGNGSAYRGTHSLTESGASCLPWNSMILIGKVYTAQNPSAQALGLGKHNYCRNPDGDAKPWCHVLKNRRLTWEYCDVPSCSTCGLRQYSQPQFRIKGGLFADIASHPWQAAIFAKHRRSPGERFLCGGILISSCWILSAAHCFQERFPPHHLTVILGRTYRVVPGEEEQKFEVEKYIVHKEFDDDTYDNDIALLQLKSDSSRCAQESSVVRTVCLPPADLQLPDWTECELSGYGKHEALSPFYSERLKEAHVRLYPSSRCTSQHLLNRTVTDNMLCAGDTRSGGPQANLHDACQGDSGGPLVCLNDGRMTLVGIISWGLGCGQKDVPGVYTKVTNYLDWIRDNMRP

| SMILES | inhibition of tumour metastasis/invasion in vivo (tumour metastasis) | inhibition of angiogenesis/capillary network formation in vitro [1] | pKi (human urokinase) | vs. tPA* (selectivity figures) (human tPA) | vs. plasmin* (selectivity figures) (human plasmin) |
| --- | --- | --- | --- | --- | --- |
| N=C(N)NC(=O)c1nc(Cl)c(N)nc1N [Amiloride] | inhibit tumour metastasis in vivo | angiogenesis/capillary network formation in vitro | – | – | – |
| NC(N)=Nc1nccc2ccc(Br)cc12 [Example 15] | – | – | 6.60 | 380 | 204 |
| NC(N)=Nc1nccc2ccc(/C=C/c3ccccc3)cc12 [Example 19] | – | – | 6.40 | 88 | 68 |
